Our source for the IC50 values is US12312370B2, “Immunoproteasome inhibitors” (Principia Biopharma Inc., priority 2017, dated 2025).

What all share (type): biochemical
In assay [1] the target is immunoproteasome LMP7/B5i subunit (Homo sapiens, UniProt P28062). Briefly: Caliper-based proteasome enzymatic activity assay, LMP7. The conditions noted are these: human recombinant immunoproteasome 0.3 nM, FAM-labeled peptide substrate 1 μM, rt 3 h; read-out: LMP7 subunit IC50.
Assay [2] deals with constitutive proteasome β5c unit (Homo sapiens, UniProt P28074). Briefly: Caliper-based proteasome enzymatic activity assay, β5c. To be noted: human recombinant constitutive proteasome 0.3 nM, FAM-labeled peptide substrate 1 μM, rt 3 h; read-out: β5c subunit IC50.
Assay [3] addresses immunoproteasome LPM2/β1i subunit (Homo sapiens, UniProt P28065). Briefly: Caliper-based proteasome enzymatic activity assay, LMP2. The conditions noted are these: human recombinant immunoproteasome 0.3 nM, FAM-labeled peptide substrate 1 μM, rt 2 h.

Structures are written as SMILES.

With `CC(C)(C=C(C#N)C(=O)N1C2CCC1(COC(=O)N[C@@H](Cc1ccccc1)B(O)O)CC2)N1CCC(F)(F)C1` [Example 57, (R)-(1-((((7-(2-cyano-4-(3,3-difluoropyrrolidin-1-yl)-4-methylpent-2-enoyl)-7-azabicyclo[2.2.1]heptan-1-yl)methoxy)carbonyl)amino)-2-phenylethyl)boronic acid], the results for the IC50 in assay [1], in assay [2] and in assay [3] were 2.6 nM, 1620 nM and 3190 nM, respectively.
As to `CC(C)(C=C(C#N)C(=O)N1CCC[C@H](OC(=O)N[C@@H](Cc2coc3ccccc23)B(O)O)C1)N1CCC(F)(F)C1` [Example 73, ((R)-2-(benzofuran-3-yl)-1-(((((S)-1-(2-cyano-4-(3,3-difluoropyrrolidin-1-yl)-4-methylpent-2-enoyl)piperidin-3-yl)oxy)carbonyl)amino)ethyl)boronic acid], the results for the IC50 in assay [1], in assay [2] and in assay [3] were 1.1 nM, 54.6 nM and more than 5000 nM, respectively.
For `Cc1ccc(C[C@H](NC(=O)NC[C@H]2CCCN2C(=O)C(C#N)=CC(C)(C)C)B(O)O)cc1` [Example 43, ((R)-1-(3-(((R)-1-(2-cyano-4,4-dimethylpent-2-enoyl)pyrrolidin-2-yl)methyl)ureido)-2-(p-tolyl)ethyl)boronic acid], in that order: 4.4 nM, more than 5000 nM and more than 5000 nM.
For `Cc1ccc(C[C@H](NC(=O)NC[C@@H]2CCCN2C(=O)C(C#N)=CC(C)(C)C)B(O)O)cc1` [Example 42, ((R)-1-(3-(((S)-1-(2-cyano-4,4-dimethylpent-2-enoyl)pyrrolidin-2-yl)methyl)ureido)-2-(p-tolyl)ethyl)boronic acid], in that order: 13 nM, more than 5000 nM and more than 5000 nM.
For `CC(C)(C=C(C#N)C(=O)N1CCC[C@@H]1CNC(=O)N[C@@H](Cc1coc2ccccc12)B(O)O)N1CCN(C2COC2)CC1` [Example 48, ((R)-2-(benzofuran-3-yl)-1-(3-(((R)-1-(2-cyano-4-methyl-4-(4-(oxetan-3-yl)piperazin-1-yl)pent-2-enoyl)pyrrolidin-2-yl)methyl)ureido)ethyl)boronic acid], in that order: 8.7 nM, 383 nM and 3740 nM.
Turning to `C=CC(=O)N1CCC[C@H]1CNC(=O)N[C@@H](Cc1ccccc1)B(O)O` [Example 37, ((R)-1-(3-(((S)-1-acryloylpyrrolidin-2-yl)methyl)ureido)-2-phenylethyl)boronic acid], the IC50 in assay [1] is 4530 nM; in assay [2] it was more than 5000 nM; in assay [3] it was more than 5000 nM.
With `C=CC(=O)N1CCCC[C@H]1CNC(=O)N[C@@H](Cc1ccccc1)B(O)O` [Example 38, ((R)-1-(3-(((S)-1-acryloylpiperidin-2-yl)methyl)ureido)-2-phenylethyl)boronic acid], the IC50 in assay [1], in assay [2] and in assay [3] was more than 5000 nM throughout.
As for `C=CC(=O)N1CCC[C@@H]1CNC(=O)N[C@@H](Cc1ccccc1)B(O)O` [Example 36, ((R)-1-(3-(((R)-1-acryloylpyrrolidin-2-yl)methyl)ureido)-2-phenylethyl)boronic acid], the figures for the half-inhibitory concentration (IC50) in assay [1], in assay [2] and in assay [3] were 1140 nM, more than 5000 nM and more than 5000 nM, respectively.
Turning to `CC(C)C=C(C#N)C(=O)N1CCC[C@H]1CNC(=O)N[C@@H](Cc1ccccc1)B(O)O` [Example 34, ((R)-1-(3-(((S)-1-(2-cyano-4-methylpent-2-enoyl)pyrrolidin-2-yl)methyl)ureido)-2-phenylethyl)boronic acid], the IC50 in assay [1] is 231 nM; in assay [2] it was more than 5000 nM; in assay [3], more than 5000 nM.
In the case of `Cc1ccc(C[C@H](NC(=O)OC[C@H]2CCN(C(=O)C(C#N)=CC(C)(C)C)C2)B(O)O)cc1` [Example 46, ((R)-1-(((((S)-1-(2-cyano-4,4-dimethylpent-2-enoyl)pyrrolidin-3-yl)methoxy)carbonyl)amino)-2-(p-tolyl)ethyl)boronic acid], the IC50 in assay [1] was 4 nM; in assay [2], 1690 nM; in assay [3], more than 5000 nM.
In the same order, the values of `CC(C)C=C(C#N)C(=O)NCCCC[C@H](NC(=O)c1cnccn1)C(=O)N[C@@H](CC(C)C)B(O)O` [Example 2, ((R)-1-((S)-6-(2-cyano-4-methylpent-2-enamido)-2-(pyrazine-2-carboxamido)hexanamido)-3-methylbutyl)boronic acid] are 12.8 nM, 8.5 nM and 46.3 nM.
In the same order, the values of `CC(C)(C)C=C(C#N)C(=O)N1CCCC[C@H]1CNC(=O)N[C@@H](Cc1ccccc1)B(O)O` [Example 40, ((R)-1-(3-(((S)-1-(2-cyano-4,4-dimethylpent-2-enoyl)piperidin-2-yl)methyl)ureido)-2-phenylethyl)boronic acid] are 669 nM, more than 5000 nM and more than 5000 nM.
For `CC(C)(C)C=C(C#N)C(=O)N1CCC[C@@H]1CNC(=O)N[C@@H](Cc1coc2ccccc12)B(O)O` [Example 45, ((R)-2-(benzofuran-3-yl)-1-(3-(((R)-1-(2-cyano-4,4-dimethylpent-2-enoyl)pyrrolidin-2-yl)methyl)ureido)ethyl)boronic acid], in that order: 4.7 nM, 2070 nM and more than 5000 nM.
Consider `CC(C)C=C(C#N)C(=O)N1CCCC[C@H]1CNC(=O)N[C@@H](Cc1ccccc1)B(O)O` [Example 35, ((R)-1-(3-(((S)-1-(2-cyano-4-methylpent-2-enoyl)piperidin-2-yl)methyl)ureido)-2-phenylethyl)boronic acid], for which the values for the IC50 in assay [1], in assay [2] and in assay [3] were 611 nM, more than 5000 nM and more than 5000 nM, respectively.
Turning to `CC(C)C=C(C#N)C(=O)N1CCCC[C@@H]1CNC(=O)N[C@@H](Cc1ccccc1)B(O)O` [Example 33, ((R)-1-(3-(((R)-1-(2-cyano-4-methylpent-2-enoyl)piperidin-2-yl)methyl)ureido)-2-phenylethyl)boronic acid], the IC50 in assay [1], in assay [2] and in assay [3] was more than 5000 nM in each case.
`COC(=O)N1CCN(C(C)(C)C=C(C#N)C(=O)N2CCC[C@H](OC(=O)N[C@@H](Cc3ccccc3)B(O)O)C2)CC1` [Example 83, ((R)-1-(((((S)-1-(2-cyano-4-(4-(methoxycarbonyl)piperazin-1-yl)-4-methylpent-2-enoyl)piperidin-3-yl)oxy)carbonyl)amino)-2-phenylethyl)boronic acid]: the IC50 in assay [1] was 2.3 nM; in assay [2], 944 nM; in assay [3], more than 5000 nM.
For `CC(C)(C=C(C#N)C(=O)N1CCC[C@@H]1CNC(=O)N[C@@H](Cc1coc2ccccc12)B(O)O)N1CCOCC1` [Example 47, ((R)-2-(benzofuran-3-yl)-1-(3-(((R)—1(2-cyano-4-methyl-4-morpholinopent-2-enoyl)pyrrolidin-2-yl)methyl)ureido)ethyl)boronic acid], in that order: 3.5 nM, 1900 nM and more than 5000 nM.
In the same order, the values of `CC(C)C=C(C#N)C(=O)NCCCC[C@H](NC(=O)c1cccc(O)n1)C(=O)N[C@@H](Cc1ccccc1)B(O)O` [Example 6, ((R)-1-((S)-6-(2-cyano-4-methylpent-2-enamido)-2-(6-hydroxypicolinamido)hexanamido)-2-phenylethyl)boronic acid] are 12.9 nM, 38.5 nM and 82.7 nM.
Consider `CC(C)(C)C=C(C#N)C(=O)N1CCC[C@H]1CNC(=O)N[C@@H](Cc1ccccc1)B(O)O` [Example 39, ((R)-1-(3-(((S)-1-(2-cyano-4,4-dimethylpent-2-enoyl)pyrrolidin-2-yl)methyl)ureido)-2-phenylethyl)boronic acid], for which the IC50 in assay [1] was 78.8 nM; in assay [2] it was more than 5000 nM; in assay [3], more than 5000 nM.
`Cc1ccc(C[C@H](NC(=O)OC[C@H]2CCCN(C(=O)C(C#N)=CC(C)(C)C)C2)B(O)O)cc1` [Example 44, ((R)-1-(((((S)-1-(2-cyano-4,4-dimethylpent-2-enoyl)piperidin-3-yl)methoxy)carbonyl)amino)-2-(p-tolyl)ethyl)boronic acid]: the IC50 in assay [1] is 2.2 nM; in assay [2] it was 2850 nM; in assay [3], more than 5000 nM.
For `CC(C)C=C(C#N)C(=O)NCCCC[C@H](NC(=O)c1cnccn1)C(=O)N[C@@H](Cc1ccccc1)B(O)O` [Example 5, ((R)-1-((S)-6-(2-cyano-4-methylpent-2-enamido)-2-(pyrazine-2-carboxamido)hexanamido)-2-phenylethyl)boronic acid], in that order: 12.3 nM, 27.4 nM and 115 nM.
For `CC(C)(C=C(C#N)C(=O)N1CCC[C@H](OC(=O)N[C@@H](Cc2ccc(F)cc2)B(O)O)C1)N1CCC(F)(F)C1` [Example 78, ((R)-1-(((((S)-1-(2-cyano-4-(3,3-difluoropyrrolidin-1-yl)-4-methylpent-2-enoyl)piperidin-3-yl)oxy)carbonyl)amino)-2-(4-fluorophenyl)ethyl)boronic acid], in that order: 2.3 nM, 501 nM and more than 5000 nM.
In the same order, the values of `C=CC(=O)N1CCC[C@@H]1CNC(=O)N[C@@H](Cc1coc2ccccc12)B(O)O` [Example 41, ((R)-1-(3-(((R)-1-acryloylpyrrolidin-2-yl)methyl)ureido)-2-(benzofuran-3-yl)ethyl)boronic acid] are 30 nM, more than 5000 nM and more than 5000 nM.
On to `C=CC(=O)N1CC(COC(=O)N[C@@H](Cc2ccccc2)B(O)O)C1` [Example 86, (R)-(1-((((1-acryloylazetidin-3-yl)methoxy)carbonyl)amino)-2-phenylethyl)boronic acid], for which the IC50 amounted to 59.1 nM in assay [1] and 218 nM in assay [2].

As usually defined, the IC50 is the concentration that gives 50% inhibition.
